Reference: US7189691B2, “Methods and compositions for treating leukemia” (The Administrators of the Tulane Educational Fund, priority 2004, dated 2007)

Columns and labels:
AF4-AF9 interaction = biological target: T1, AF4-AF9 interaction (Homo sapiens, UniProt P42568); experiment: Enzyme-linked protein binding assay, GST-AF4(749-775) and biotinylated AF9; conditions: peptide 20 μg/ml; FIG. 2A
T1 construct: made in house; host or cells: GST-AF4 from E. coli; AF9 by coupled in vitro transcription/translation (Promega)
T1 sequence (P42568 211-568): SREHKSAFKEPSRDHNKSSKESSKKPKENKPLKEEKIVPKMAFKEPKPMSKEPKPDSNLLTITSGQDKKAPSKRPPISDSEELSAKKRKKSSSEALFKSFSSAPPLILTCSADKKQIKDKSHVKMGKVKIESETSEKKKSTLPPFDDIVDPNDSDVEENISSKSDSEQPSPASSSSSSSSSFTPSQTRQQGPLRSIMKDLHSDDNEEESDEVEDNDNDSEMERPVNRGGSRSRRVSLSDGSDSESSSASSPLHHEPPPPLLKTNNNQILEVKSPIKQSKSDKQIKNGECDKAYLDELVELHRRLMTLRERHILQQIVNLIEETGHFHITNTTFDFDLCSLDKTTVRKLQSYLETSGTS
Experimental: Next, an enzyme-linked protein binding assay was developed as a potential high throughput tool to semi-quantitatively assess the ability of various compounds to disrupt the AF4-AF9 interaction in vitro (FIGS. 2A and 2B).
GST-AF4 (749–775) SEQ ID NO: 107 was bound to glutathione-coated 96-well plates and incubated with biotinylated AF9 in conjunction with 20 μg/ml of the following peptides: • (a) Pen-[…], a fusion protein of PENETRATIN™ transporter peptide to the amino terminus of […](SEQ ID NO: 110, PFmut), • (b) Pen-[…], a fusion protein of the transporter protein PENETRATIN™ to the amino terminus of […](SEQ ID NO: 2; or PFWT), • (c) […] or […](SEQ ID NO: 111); • (d) […] or […] (SEQ ID NO: 112); • (e) […] or […](SEQ ID NO: 113), or with • (f) DMSO, or • (g) GST-Cx, a control.
The plate was washed and the retention of AF9 was determined by a colorimetric assay using streptavidin-alkaline phosphatase and pNPP as a substrate. […] At this same peptide concentration, PFmut (a) in col. […] The 10 amino acid peptide (d) in col. 6 is the smallest molecule found to have activity in vitro.

[1] = biological target: T2, AF4-AF9 protein complexes (Homo sapiens, UniProt P42568); experiment: Co-localization of GFP-AF4R1 3A- and RFP-AF9 in transfected NIH-3T3 cells; type: cell-based, mouse; conditions: overnight
T2 construct: expressed in transfected cells; host or cells: NIH-3T3
T2 sequence (P42568 1-568): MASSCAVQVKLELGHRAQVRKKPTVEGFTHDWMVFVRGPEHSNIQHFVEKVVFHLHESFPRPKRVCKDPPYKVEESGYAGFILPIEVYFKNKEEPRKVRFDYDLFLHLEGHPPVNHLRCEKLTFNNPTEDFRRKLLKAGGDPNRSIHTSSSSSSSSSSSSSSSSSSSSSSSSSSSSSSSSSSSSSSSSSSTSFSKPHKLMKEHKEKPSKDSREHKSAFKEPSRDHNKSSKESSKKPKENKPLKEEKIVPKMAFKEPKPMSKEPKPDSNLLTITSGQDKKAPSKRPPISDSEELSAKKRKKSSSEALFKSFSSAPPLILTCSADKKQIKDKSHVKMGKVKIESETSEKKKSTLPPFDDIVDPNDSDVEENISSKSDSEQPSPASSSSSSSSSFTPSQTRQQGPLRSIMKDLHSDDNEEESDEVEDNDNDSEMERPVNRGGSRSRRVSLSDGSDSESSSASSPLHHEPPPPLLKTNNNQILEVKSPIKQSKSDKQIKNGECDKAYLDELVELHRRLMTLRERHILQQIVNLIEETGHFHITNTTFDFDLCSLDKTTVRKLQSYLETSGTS
Experimental: To determine whether PFWT disrupts AF4-AF9 protein complexes in living cells, the properties of a fragment of mouse AF4 protein encompassing amino acids 623–811 (SEQ ID NO: 115) was used. The entire murine AF4 sequence can be obtained from the NCBI database at Accession Number AAD08668.
To test whether disruption of the AF4-AF9 interaction by PFWT results in delocalization of AF4R1 3A- from the nucleus to the cytoplasm even when co-expressed with exogenous AF9, the following assay was performed.
An enhanced green fluorescent protein (GFP) expression vector encoding mouse AF4 amino acids 623–811 SEQ ID NO: 115 (pEGFP-AF4R1 3A-), and a red fluorescent protein (RFP)-tagged AF9 expression vector were produced as described (Erfurth, F., et al., 2004, cited above; Srinivasan 2003, cited above; Hemenway, C. S., et al., 2001, cited above). NIH-3T3 cells were grown in chamber slides containing DMEM supplemented with 1-glutamine, 1% non-essential amino acids, 1% sodium pyruvate, 10% calf serum, and antibiotics. Cells were then transiently transfected with the expression vectors expressing fluorescent protein-tagged AF4 and AF9 using Lipofectamine™ 2000 reagent (Invitrogen). After 24 h the cells were treated with the peptides PFWT or PFmut at a concentration of 25 or 50 μg/ml and incubated overnight.
Cells on chamber slides were washed in PBS, fixed with 3% paraformaldehyde for 15 minutes, treated with 300 nM 4′,6-Diamidino-2-phenyindole (DAPI) nuclear counterstain for 5 minutes, and mounted with coverslips using Prolong™ media (Molecular Probes). Slides were visualized by deconvolution fluorescence microscopy with a Leica DMRXA upright microscope (Meyer Instruments) equipped with a Sensicam™ QE CCD digital camera (Cooke Corporation) and filter sets for both EGFP (exciter HQ480/20, dichroic Q495LP, and emitter HQ510/20m) and RFP (exciter 560/55x, dichroic Q595LP, and emitter HQ645/75m). Images were captured, deconvolved, and analyzed with Slidebook™ software (Intelligent Imaging Innovations).
Image analysis entailed a pixel correlation algorithm between the EGFP and RFP fluorescence channels within each image through creation of a digital binary overlay (thresholding) over arbitrary regions in both channels. This statistical measurement determines the degree in which two pixels in an image correspond to one another. If the trend in number of pixels in both EGFP and RFP channels overlap or co-localize entirely (i.e., perfect pixel set correlation), they have an assigned correlation measurement of 1.0.

SMILES	AF9 binding to GST-AF4 (retention of AF9) (AF4-AF9 interaction)	localization of GFP-AF4R1 3A- relative to RFP-AF9 ([1]; 25 μg/ml)	pixel correlation between EGFP and RFP channels ([1]; 25 μg/ml)	localization of GFP-AF4R1 3A- relative to RFP-AF9 ([1]; 50 μg/ml)	pixel correlation between EGFP and RFP channels ([1]; 50 μg/ml)
CC[C@H](C)[C@H](NC(=O)[C@H](CCCCN)NC(=O)[C@@H](NC(=O)[C@H](Cc1c[nH]c2ccccc12)NC(=O)[C@H](CC(C)C)NC(=O)[C@H](CCCCN)NC(=O)[C@H](CCCCN)NC(=O)[C@H](Cc1c[nH]c2ccccc12)NC(=O)[C@H](CCCCN)NC(=O)[C@H](CCSC)NC(=O)[C@H](CCCNC(=N)N)NC(=O)[C@H](CCCNC(=N)N)NC(=O)[C@H](CC(N)=O)NC(=O)[C@H](CCC(N)=O)NC(=O)[C@H](Cc1ccccc1)NC(=O)[C@H](Cc1c[nH]c2ccccc12)NC(=O)[C@H](CCCCN)NC(=O)[C@@H](NC(=O)[C@H](CCC(N)=O)NC(=O)[C@@H](N)CCCNC(=N)N)[C@@H](C)CC)C(C)C)C(=O)N[C@@H](CC(=O)O)C(=O)N[C@@H](CC(C)C)C(=O)N[C@@H](CC(=O)O)C(=O)N[C@@H](CC(C)C)C(=O)N[C@@H](CC(C)C)C(=O)N[C@@H](CO)C(=O)N[C@@H](CCCNC(=N)N)C(=O)N[C@H](C(=O)N1CCC[C@H]1C(=O)O)C(C)C [PFWT]	almost completely block AF9 binding	partially delocalizes or is displaced from RFP-AF9	negative correlation value	little or no GFP-AF4R1 3A- remains in the nucleus	negatively correlated
CC[C@H](C)[C@H](NC(=O)[C@H](CCC(N)=O)NC(=O)[C@@H](N)CCCNC(=N)N)C(=O)N[C@@H](CCCCN)C(=O)N[C@@H](Cc1c[nH]c2ccccc12)C(=O)N[C@@H](Cc1ccccc1)C(=O)N[C@@H](CCC(N)=O)C(=O)N[C@@H](CC(N)=O)C(=O)N[C@@H](CCCNC(=N)N)C(=O)N[C@@H](CCCNC(=N)N)C(=O)N[C@@H](CCSC)C(=O)N[C@@H](CCCCN)C(=O)N[C@@H](Cc1c[nH]c2ccccc12)C(=O)N[C@@H](CCCCN)C(=O)N[C@@H](CCCCN)C(=O)N[C@@H](CC(C)C)C(=O)N[C@@H](Cc1c[nH]c2ccccc12)C(=O)N[C@@H](CCC(=O)O)C(=O)N[C@@H](CCCCN)C(=O)N[C@@H](CO)C(=O)N[C@@H](CC(=O)O)C(=O)N[C@@H](CC(C)C)C(=O)N[C@@H](CC(=O)O)C(=O)N[C@@H](CC(C)C)C(=O)N[C@@H](CC(C)C)C(=O)N[C@@H](CO)C(=O)N[C@@H](CCCNC(=N)N)C(=O)N[C@H](C(=O)N1CCC[C@H]1C(=O)O)C(C)C [PFmut]	interferes with AF9 binding, but a significant amount of AF9 remains bound in the well	no observable effect	significantly positively correlated	displaces some GFP-AF4R1 3A- from RFP-AF9 into the cytoplasm	strongly positively correlated
